Assay [1] concerns the target T1, (α1,2)fucosyltransferase found in human milk (Se locus) (Homo sapiens, UniProt Q10981).
T1 sequence (Q10981 29-343 limits assumed): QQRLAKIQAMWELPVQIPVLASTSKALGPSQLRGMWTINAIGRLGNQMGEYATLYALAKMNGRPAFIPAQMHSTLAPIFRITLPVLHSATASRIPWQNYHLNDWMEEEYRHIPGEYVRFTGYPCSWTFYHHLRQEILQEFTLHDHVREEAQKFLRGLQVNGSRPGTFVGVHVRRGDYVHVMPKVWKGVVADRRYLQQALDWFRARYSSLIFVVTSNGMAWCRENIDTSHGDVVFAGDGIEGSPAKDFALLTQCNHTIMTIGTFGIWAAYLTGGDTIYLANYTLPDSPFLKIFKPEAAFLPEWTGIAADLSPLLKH
The experiment in a line: Apparent Km for the human milk (α1,2)fucosyltransferase. In kind it is biochemical. Conditions: human milk enzyme; read-out: apparent Km for phenyl-β-D-galactoside. The protocol: (α1,2)Fucosyltransferase was isolated from human milk by published procedures. Briefly, 300 ml of milk from a Se-positive donor was defatted by centrifugation and was extensively dialyzed against 20 MM sodium cacodylate, pH 6.0. This was applied to a column (2.6×115 cm) of sulfopropyl-Sephadex equilibrated in 20 mM cacodylate, pH 6.0. The column was then washed with 1 liter of 20 mM cacodylate, pH 6.0, and was eluted with a linear gradient made from 1.5 liter each of 20 mM cacodylate, pH 6.0, and 500 mM NaCl in 20 mM cacodylate, pH 6.0. Fractions (13 ml) were collected and assayed for (α1,2)fucosyltransferase activity using phenyl-β-D-galactoside acceptor as described below. […]
Fucosyltransferase assays were performed by a modification of the procedure reported by Chester et al. (Chester et al, Eur. J. Biochem., 69: 583-593, 1976). […] The final pH value of each reaction was determined with a micro pH probe. […] The concentration of GDP-fucose in this stock solution was calculated from the UV absorbance at 254 nm of an aliquot diluted in water. […] The supernatant contained virtually 100% of the radiolabelled product; this was collected, and an aliquot was used for separation and quantitation of the fucosylated product using the hydrophobic interaction chromatography method described below. […] Intercepts were calculated by the least squares estimation method.

Assay [2] has as its target T2, blood group H (α1,2)fucosyltransferase (Homo sapiens, UniProt P19526).
T2 sequence (P19526 1-365): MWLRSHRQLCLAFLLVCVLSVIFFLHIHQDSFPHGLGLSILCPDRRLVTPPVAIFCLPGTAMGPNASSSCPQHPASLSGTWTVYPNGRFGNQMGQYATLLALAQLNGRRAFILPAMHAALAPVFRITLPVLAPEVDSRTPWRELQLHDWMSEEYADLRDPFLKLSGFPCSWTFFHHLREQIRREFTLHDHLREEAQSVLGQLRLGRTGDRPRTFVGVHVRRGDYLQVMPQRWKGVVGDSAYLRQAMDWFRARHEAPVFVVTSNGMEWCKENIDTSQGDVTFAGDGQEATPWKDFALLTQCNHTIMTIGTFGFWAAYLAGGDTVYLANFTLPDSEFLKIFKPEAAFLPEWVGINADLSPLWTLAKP
The experiment in a line: Apparent Km for the blood group H (α1,2)fucosyltransferase. Type of assay: biochemical. As to conditions: determined by the inventor; read-out: apparent Km for phenyl-β-D-galactoside. The protocol:
Serum was prepared from freshly drawn blood obtained from a non-Secretor individual. The blood was clotted in a glass tube at 37° C. for 1 h and was immediately fractionated by ammonium sulfate precipitation exactly as described. The 20%-40% ammonium sulfate fraction was dialyzed against 2 changes of 4 liters of water (8 h each) at 4° C. Assay of (α1,2)fucosyltransferase was done immediately. Alternatively, the fractionated serum was aliquoted and stored at −20° C. until use.
Fucosyltransferase assays were performed by a modification of the procedure reported by Chester et al. (Chester et al, Eur. J. Biochem., 69: 583-593, 1976). […] The final pH value of each reaction was determined with a micro pH probe. […] The concentration of GDP-fucose in this stock solution was calculated from the UV absorbance at 254 nm of an aliquot diluted in water. […] The supernatant contained virtually 100% of the radiolabelled product; this was collected, and an aliquot was used for separation and quantitation of the fucosylated product using the hydrophobic interaction chromatography method described below. […] This background acceptor “activity” was always less than 3% of the radioactivity incorporated into the phenyl-β-D-galactoside acceptor. […] Intercepts were calculated by the least squares estimation method.

The target of assay [3] is T3, recombinant human (α1,2)fucosyltransferase (Homo sapiens, UniProt P19526).
T3 construct: expressed in transfected cells; host or cells: COS-1 cells, transient DEAE-dextran transfection, cell extracts
T3 sequence (P19526 1-365): T2 sequence (P19526 1-365)
The experiment in a line: Apparent Michaelis constants of recombinant (α1,2)fucosyltransferase expressed in COS-1 cells. Type of assay: biochemical. The protocol:
(§1) Fucosyltransferase assays were performed by a modification of the procedure reported by Chester et al. (Chester et al, Eur. J. Biochem., 69: 583-593, 1976). The standard assay contained GDP-[^14]fucose (3 μM) phenyl-β-D-galactoside (25 mM), ATP (5 mm) and the enzyme solution (1-10 μl) in 20 μl of 25 mM sodium phosphate buffer, pH 6.1. Based upon preliminary assays, amounts of added enzyme activities were adjusted to ensure that reactions were linear throughout the period of incubation (4 h for fractionated serum, 2 h for each of the other enzyme preparations). Under these conditions, less than 15% of the substrate was consumed during the incubation period. […] The final pH value of each reaction was determined with a micro pH probe. […] The concentration of GDP-fucose in this stock solution was calculated from the UV absorbance at 254 nm of an aliquot diluted in water. […] The supernatant contained virtually 100% of the radiolabelled product; this was collected, and an aliquot was used for separation and quantitation of the fucosylated product using the hydrophobic interaction chromatography method described below. […] This background acceptor “activity” was always less than 3% of the radioactivity incorporated into the phenyl-β-D-galactoside acceptor. […] Intercepts were calculated by the least squares estimation method. […]

Assay [4] relates to monoclonal anti-H antibody. The experiment in a line: Hapten inhibition of anti-H antibody binding to mH1-12 cells (indirect immunofluorescence). Also noted: species or system mouse. Conditions: antibody preincubated with hapten, 20 mM. The protocol: Immunofluoroscence was performed on cells plated on 8-well tissue culture chamber slides (Lab-Tek). Cells were plated at a density of 5×10^4/well 24 h prior to analysis. Anti-H and anti-A primary antibodies were diluted in PBS containing bovine serum albumin at 2 mg/ml, to a final concentration of 10 μg/ml. Cell-bound primary antibodies were detected with FITC-conjugated goat anti-mouse IgM, diluted to 40 μg/ml in PBS containing 2 mg/ml bovine serum albumin.
Hapten Inhibition—Plated cells were washed twice with PBS, and were incubated for 30 min at 4° C. with 100 μl of diluted anti-H antibody, or with 100 μl of diluted antibody containing different oligosaccharide haptens, each at a concentration of 20 mM. The chambers were then washed twice, and 100 μl of FITC-conjugated goat anti-mouse IgM was added. After 30 min at 4° C., the chambers were washed three times with PBS, and the cells were fixed at room temperature for 10 min in 3.7% formaldehyde in PBS. The cells were washed twice with PBS, the chambers were removed, and the slide was mounted in PBS containing 25% glycerol. Cells were examined by fluorescence microscopy using a Zeiss Axiophot photomicroscope equipped with fluorescence epiillumination.

The subject of assay [5] is (α1,2)fucosyltransferase. The experiment in a line: (α1,2)Fucosyltransferase assay, substrate and effector tests. Type of assay: biochemical. The protocol:
as §1

In assay [6] the test system is α-fucosidase activity. The experiment in a line: α-Fucosidase activity in enzyme preparations. Type of assay: biochemical. Conditions: 10 mM; fractionated human serum and mouse intestinal mucosa extracts. The protocol: Each enzyme preparation was also tested for α-fucosidase activity that could hydrolyze the [^14C]fucosylphenyl-β-D-galactoside product and prevent accurate determination of (α1,2)fucosyltransferase activity. Enzyme preparations were incubated with purified [^14C]fucosylphenyl-β-D-galactoside (7000 cpm, 10 pmol) in fucosyltransferase assay buffer, but in the absence of added GDP-[^14C]fucose or phenyl-β-D-galactoside. These reactions were incubated at 37° C. for various times, and were then fractionated by the Sep-Pak method to determine the amount of remaining [^14C]fucosylphenyl-β-D-galactoside. Fractionated human serum and mouse intestinal mucosa extracts each contained significant α-fucosidase activity. […] Therefore 10 mM L-fucose was included when assaying these enzyme sources. Significant amounts of α-fucosidase activity were not detected in any of the other cell extracts; product hydrolysis never exceeded 1%/h under the standard assay conditions.

Assay [7] relates to F9 teratocarcinoma cells. The experiment in a line: (α1-3)GT specific activity in retinoic acid-differentiated F9 cells. In kind it is cell-based, mouse.
Assay [8] concerns Griffonia simplicifolia isolectin I B4 (GS I-B4). The experiment in a line: Hapten inhibition of FITC-GS I-B4 staining of COS-1 cells transfected with pCDM7-αGT. Type of assay: binding. Conditions: 50 mM raffinose. The protocol: COS-1 cells transfected with plasmid DNAs were harvested 48-72-hr after transfection. These were stained with either fluorescein isothiocyanate-conjugated GS I-B4 at 10 μg per ml in staining media or with fluorescein isothiocyanate-conjugated GS I-B4 that had been previously incubated with 50 mM raffinose. Cells were then subjected to analysis by fluorescence-activated cell sorting as described above.

The subject of assay [9] is nucleotide pyrophosphatase activity. The experiment in a line: Nucleotide pyrophosphatase activity in mock fucosyltransferase assays. Type of assay: biochemical. Conditions: 5 mM in standard assay cocktail. The protocol:
ATP (5 mM) was therefore included in all assays to inhibit nucleotide pyrophosphatase activity. […] Each enzyme source was incubated for 1 to 4 h at 37° C. in 20 μl of standard assay cocktail, but in the absence of phenyl-β-D-galactoside. After the reactions were terminated, an aliquot of each was spotted on Whatman No. 3MM, fractionated by descending paper chromatography for 20 h in solvent B, and radioactivity was determined as described above. Authentic GDP-[^14C]fucose, [^14C]fucose-1-phosphate, and L-[^14C]fucose standards were chromatographed in parallel. This system separates GDP-fucose, fucose-1-phosphate, and fucose. It therefore allows quantitation of the amount of GDP-[^14C]fucose remaining at the end of the incubation, and thus provides an estimate of pyrophosphatase activity. Under the standard assay conditions, more than 97% of the GDP-[^14C]fucose initially present in each mock reaction remained unhydrolyzed and available for transglycosylation.

Read-outs that look alike come from different tables or passages of the source.

What is called Km is the concentration of substrate that gives half-maximal velocity. For `OC[C@H]1O[C@@H](Oc2ccccc2)[C@H](O)[C@@H](O)[C@H]1O` [phenyl-β-D-galactoside], the Km turned out to be 15.1 mM in [1]; 3.1 mM in [2]; 2.4 mM in assay [3] (COS-1 cells transfected with pCDM7-α(1,2)FT, GDP-[14C]fucose 3 μM, read-out: apparent Km for phenyl-β-D-galactoside). Take `C[C@@H]1O[C@H](OP(=O)(O)OP(=O)(O)OC[C@H]2O[C@@H](n3cnc4c(=O)[nH]c(N)nc43)[C@H](O)[C@@H]2O)[C@@H](O)[C@H](O)[C@@H]1O` [GDP-fucose]: in assay [3] (COS-1 cells transfected with pH3.4, phenyl-β-D-galactoside 25 mM, read-out: apparent Km for GDP-fucose), the Km amounted to 0.0175 mM. With `C[C@H](O)[C@@H](O)[C@@H](O)[C@H](O)C=O` [L-fucose], the “inhibition of anti-H antibody binding to mH1-12 cells by hapten” value in assay [4] is “does not inhibit”. In assay [5] (10 mM, reconstruction experiments with cell extracts), the “effect on (α1,2)fucosyltransferase activity” value is “does not alter the activity”. Also, the “inhibition of α-fucosidase activity” value in [6] is on record as “effectively inhibited”. Turning to `CC1=C(/C=C/C(C)=C/C=C/C(C)=C/C(=O)O)C(C)(C)CCC1` [retinoic acid], the “specific activity of (α1-3)GT versus untreated F9 cells” value in assay [7] is “approximately 4 fold”.

For the molecule `OC[C@H]1O[C@H](OC[C@H]2O[C@H](O[C@]3(CO)O[C@H](CO)[C@@H](O)[C@@H]3O)[C@H](O)[C@@H](O)[C@@H]2O)[C@H](O)[C@@H](O)[C@H]1O` [raffinose], the “inhibition of GS I-B4 staining by hapten” value in [8] was “inhibited”. On to `C[C@@H]1O[C@H](OP(=O)(O)OP(=O)(O)OC[C@H]2O[C@@H](n3cnc4c(=O)[nH]c(N)nc43)[C@H](O)[C@@H]2O)[C@@H](O)[C@H](O)[C@@H]1O` [GDP-β-L-fucose], for which, in assay [5], the “activity as a substrate for (α1,2)fucosyltransferase” value was “inactive”. With `Nc1ncnc2c1ncn2[C@@H]1O[C@H](COP(=O)(O)OP(=O)(O)OP(=O)(O)O)[C@@H](O)[C@H]1O` [ATP], in assay [9], the “inhibition of nucleotide pyrophosphatase activity” value was “Effective inhibition”.
